Where a SMILES comes first, the peptide text is derived from it. [ ]: non-standard residue; d: D form. The star is where a group is joined. X2 = CN(C)c1ccc2c(-c3ccc(C(=O)*)cc3C(=O)[O-])c3ccc(=[N+](C)C)cc-3oc2c1; X1 = O=C(CCCCCCCn1cnc2c(Br)c(Br)c(Br)c(Br)c21)*
How the values were obtained:
[1] = molecular target: T1, catalytic subunit of CK2 (CK2α) (Homo sapiens, UniProt P68400); assay: Competition experiment: displacement of fluorescent probe VI from CK2α; type: binding; settings: for Kd: calculated from I50 and KD of the probe
T1 sequence (P68400 1-335 limits assumed): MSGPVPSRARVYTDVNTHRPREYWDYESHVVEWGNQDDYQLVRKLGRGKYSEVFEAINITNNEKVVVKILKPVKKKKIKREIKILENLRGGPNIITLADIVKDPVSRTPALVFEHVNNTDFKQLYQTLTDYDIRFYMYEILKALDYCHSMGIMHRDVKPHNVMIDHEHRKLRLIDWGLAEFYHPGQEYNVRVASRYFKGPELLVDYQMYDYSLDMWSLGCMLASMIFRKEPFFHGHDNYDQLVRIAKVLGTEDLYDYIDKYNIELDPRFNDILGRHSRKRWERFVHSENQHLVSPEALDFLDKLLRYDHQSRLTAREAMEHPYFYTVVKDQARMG

[2] = molecular target: T1, catalytic subunit of CK2 (CK2α); assay: Titration of fluorescent probe with CK2α (fluorescence anisotropy); type: binding
Procedure: The binding of the fluorescent probe of formula VI to the catalytic subunit of protein kinase CK2 (CK2α) was studied at 0.2 nM concentration of the probe and 2-fold dilutions of CK2α in a buffer containing 50 mM HEPES (pH 7.5), 150 mM NaCl, 5 mM DTT, 0.1 mM EDTA and 0.005% tween 20 in 20 μl volumes in 384-well microplate. […] The change in fluorescence anisotropy vs kinase concentration was plotted and KD value was calculated by the application of nonlinear regression analysis to the relationship: A=Af(1−X1)+AbX1, where X1=QX2/[1+X2(Q−1)], where X2={P+KD+kE0−[(P+KD+kE0)^2−4PkE0]^1/2}/2P where A is measured anisotropy, Af is the anisotropy of free probe, Ab is the anisotropy of the probe-CK2α complex, Q is the ratio of fluorescence quantum yield of the probe-CK2α complex and the free probe, P is the concentration of the fluorescent probe, E0 is the nominal concentration of the kinase, k is the fraction of active kinase in enzyme preparation and KD is the dissociation constant of the probe-CK2α complex. Q value of 1.1 was calculated by dividing the total fluorescence intensity of the complex with the total fluorescence intensity of the free probe.

[3] = molecular target: holoenzyme of protein kinase CK2 (CK2α + CK2β) (Homo sapiens, UniProt P68400); assay: biochemical
holoenzyme of protein kinase CK2 (CK2α + CK2β), sequence (P68400 whole entry): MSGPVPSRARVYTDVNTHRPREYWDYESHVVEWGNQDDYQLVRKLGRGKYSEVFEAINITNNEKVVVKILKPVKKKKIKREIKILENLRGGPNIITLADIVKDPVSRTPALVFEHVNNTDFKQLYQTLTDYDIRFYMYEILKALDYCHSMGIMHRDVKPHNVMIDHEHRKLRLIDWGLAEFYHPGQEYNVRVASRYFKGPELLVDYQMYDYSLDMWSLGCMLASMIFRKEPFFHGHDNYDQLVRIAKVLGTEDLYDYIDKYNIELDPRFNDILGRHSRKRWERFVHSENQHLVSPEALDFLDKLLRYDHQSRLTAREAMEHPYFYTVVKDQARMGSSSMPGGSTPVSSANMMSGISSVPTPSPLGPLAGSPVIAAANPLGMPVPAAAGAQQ
holoenzyme of protein kinase CK2 (CK2α + CK2β), sequence (P67870 whole entry partner): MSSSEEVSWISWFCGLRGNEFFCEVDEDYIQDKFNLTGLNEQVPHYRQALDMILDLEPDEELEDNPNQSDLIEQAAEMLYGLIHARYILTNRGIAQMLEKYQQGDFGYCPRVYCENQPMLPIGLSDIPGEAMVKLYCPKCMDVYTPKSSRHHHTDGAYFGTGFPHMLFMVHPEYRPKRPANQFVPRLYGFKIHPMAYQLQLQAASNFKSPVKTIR
Procedure: The binding of the fluorescent probe to the holoenzyme of protein kinase CK2 was studied at 0.2 nM concentration of the probe, 2-fold dilutions of CK2α and 100 nM regulatory subunit of CK2 (CK2β) in a buffer containing 50 mM HEPES (pH 7.5), 150 mM NaCl, 5 mM DTT, 0.1 mM EDTA and 0.005% tween 20 in 20 μl volumes in 384-well microplate. […] The change in fluorescence anisotropy vs kinase concentration was plotted and KD-value was calculated by the application of nonlinear regression analysis to the relationship: A=Af(1−X1)+AbX1, where X1=QX2/[1+X2(Q−1)], where X2={P+KD+kE0−[(P+KD+kE0)^2−4PkE0]^1/2}/2P where A is measured anisotropy, Af is the anisotropy of free probe, Ab is the anisotropy of the probe-CK2 holoenzyme complex, Q is the ratio of fluorescence quantum yield of the probe-CK2 holoenzyme complex and the free probe, P is the concentration of the fluorescent probe, E0 is the nominal concentration of CK2α, k is the fraction of active kinase in enzyme preparation and KD is the dissociation constant of the probe-CK2 holoenzyme complex.

[4] = CK2α 2 nM, fluorescent probe VI 3 nM
[5] = CK2α 0.8 nM, fluorescent probe VI 0.5 nM
[6] = fluorescence anisotropy, HEPES pH 7.5, 30° C., probe X also by time gated luminescence, read-out: KD of probe-CK2α complex

**Q.** What does the source list for TBBI-AcOH?
**A.** IC50 [1, 4]: 11500 nM; Kd [1, 4]: 1500 nM

**Q.** With TIBI-AcOH as the compound, how does the IC50 [1, 5] read?
**A.** 390 nM

**Q.** And the Kd [1, 5]?
**A.** 122 nM

**Q.** How did the Kd [2, 6] turn out when `CN(C)c1ccc2c(-c3ccc(C(=O)NCCCC[C@H](NC(=O)[C@H](CC(=O)O)NC(=O)[C@H](CC(=O)O)NC(=O)[C@H](CC(=O)O)NC(=O)[C@H](CC(=O)O)NC(=O)[C@H](CC(=O)O)NC(=O)[C@@H](CC(=O)O)NC(=O)CCCCCCCn4cnc5c(Br)c(Br)c(Br)c(Br)c54)C(=O)O)cc3C(=O)[O-])c3ccc(=[N+](C)C)cc-3oc2c1` [probe VII] (X1-[dD]DDDDDK(X2)-OH) was run?
**A.** 0.4 nM

**Q.** For `CCN1/C(=C/C=C/C=C/C2=[N+](CC)c3ccc(S(=O)(=O)[O-])cc3C2(C)C)C(C)(CCCC(=O)NCCCC[C@H](NC(=O)[C@H](CC(=O)O)NC(=O)[C@H](CC(=O)O)NC(=O)[C@H](CC(=O)O)NC(=O)[C@H](CC(=O)O)NC(=O)[C@H](CC(=O)O)NC(=O)[C@@H](CC(=O)O)NC(=O)CCCCCCCn2ccc3ccc4n[se]nc4c32)C(=O)O)c2cc(S(=O)(=O)O)ccc21` (stereo partly shown) [probe X], which Kd [2] is on record?
**A.** 10 nM

**Q.** For `CCN1/C(=C/C=C/C=C/C2=[N+](CC)c3ccc(S(=O)(=O)[O-])cc3C2(C)C)C(C)(CCCC(=O)NCCCC[C@H](NC(=O)[C@H](CC(=O)O)NC(=O)[C@H](CC(=O)O)NC(=O)[C@H](CC(=O)O)NC(=O)[C@H](CC(=O)O)NC(=O)[C@H](CC(=O)O)NC(=O)[C@@H](CC(=O)O)NC(=O)CCCCCCCn2cnc3c(Br)c(Br)c(Br)c(Br)c32)C(=O)O)c2cc(S(=O)(=O)O)ccc21` (stereo partly shown) [probe VI], which Kd [2, 6] is on record?
**A.** 0.4 nM

**Q.** And the Kd [3]?
**A.** 0.2 nM

**Q.** How did the Kd [2, 6] turn out when `CCN1/C(=C/C=C/C=C/C2=[N+](CC)c3ccc(S(=O)(=O)[O-])cc3C2(C)C)C(C)(CCCC(=O)NCCCC[C@H](NC(=O)[C@H](CC(=O)O)NC(=O)[C@H](CC(=O)O)NC(=O)[C@H](CC(=O)O)NC(=O)[C@H](CC(=O)O)NC(=O)[C@H](CC(=O)O)NC(=O)[C@H](CC(=O)O)NC(=O)CCCCCCCCOc2nc3cc(C(=O)O)ccc3c3cnccc23)C(=O)O)c2cc(S(=O)(=O)O)ccc21` (stereo partly shown) [probe IX] was run?
**A.** 0.02 nM

**Q.** `CCN1/C(=C/C=C/C=C/C2=[N+](CC)c3ccc(S(=O)(=O)[O-])cc3C2(C)C)C(C)(CCCC(=O)NCCCC[C@H](NC(=O)[C@H](CC(=O)O)NC(=O)[C@H](CC(=O)O)NC(=O)[C@H](CC(=O)O)NC(=O)[C@H](CC(=O)O)NC(=O)[C@H](CC(=O)O)NC(=O)[C@@H](CC(=O)O)NC(=O)CCCCCCCn2cnc3c(I)c(I)c(I)c(I)c32)C(=O)O)c2cc(S(=O)(=O)O)ccc21` (stereo partly shown) [probe VIII] was tested. Which Kd [2, 6] did it give?
**A.** 0.4 nM

Source: US9176064B2, “Bisubstrate fluorescent probes for protein kinase CK2” (University of Tartu, priority 2012, dated 2015)
